Experimental data published in patent publication US8507504B2, “Process for producing bicycloaniline derivatives” (Merck Sharp & Dohme Corp., priority 2008, dated 2013).

Tested on: Human colon cancer cells WiDr
Assay: Tumor growth inhibitory effect, WiDr xenograft in nude rats, combined with gemcitabine
Format: in vivo, F344/N Jcl-rnu nude rats
Conditions: summary of Table 1
Protocol: Pharmacological Test 2 (Tumor Growth Inhibitory Effect)
Human colon cancer cells WiDr (obtained from ATCC) were implanted into the subcutaneous area of the back of F344/N Jcl-rnu nude rats. 12 days after the implantation, 5 mg/kg of gemcitabine (Gemzar, from Eli Lily) was intravenously administered to them; and after 24 hours, a test compound suspended in a solvent (0.5% methyl cellulose) was orally administered thereto. This was repeated once a week for 3 weeks. The tumor volume (0.5×major diameter×(minor diameter)^2) was measured on days 0, 3, 6, 10, 13, 17, 20, 24 and 27 (the first gemcitabine administration is on day 0). The relative tumor volume was calculated, based on the tumor volume on day 0, as 1. The tumor growth rate (% T/C) was obtained according to the formulae mentioned below.
In case where the tumor volume change from day 0 in the test compound administration group is more than 0 (>0): % T/C=(tumor volume change in the test compound group on days 3, 6, 10, 13, 17, 20, 24 and 27/tumor volume change in the control group on days 3, 6, 10, 13, 17, 20, 24 and 27)×100.
In case where the tumor volume change from day 0 in the test compound administration group is less than 0 (<0): % T/C=(tumor volume change in the test compound group on days 3, 6, 10, 13, 17, 20, 24 and 27/tumor volume […] in the test compound group on day 0)×100. […]

Nc1ccn([C@@H]2O[C@H](CO)[C@@H](O)C2(F)F)c(=O)n1 [Gemcitabine, gemcitabine]
tumor growth rate (result in words): reduced the tumor growth rate
